Drawing on patent US20100056526A1, “HETEROMONOCYCLIC COMPOUND AND USE THEREOF” (Takeda Pharmaceutical Company Limited, priority 2006, published 2010), this text covers IC50 and activation for 17 molecules.

The IC50 is the concentration that inhibits the measured activity by half.

One assay concerns the target T1, human AT1 receptor (Homo sapiens, UniProt P30556).
T1 construct: expressed in transfected cells; host or cells: CHO-K1
T1 sequence (P30556 1-359): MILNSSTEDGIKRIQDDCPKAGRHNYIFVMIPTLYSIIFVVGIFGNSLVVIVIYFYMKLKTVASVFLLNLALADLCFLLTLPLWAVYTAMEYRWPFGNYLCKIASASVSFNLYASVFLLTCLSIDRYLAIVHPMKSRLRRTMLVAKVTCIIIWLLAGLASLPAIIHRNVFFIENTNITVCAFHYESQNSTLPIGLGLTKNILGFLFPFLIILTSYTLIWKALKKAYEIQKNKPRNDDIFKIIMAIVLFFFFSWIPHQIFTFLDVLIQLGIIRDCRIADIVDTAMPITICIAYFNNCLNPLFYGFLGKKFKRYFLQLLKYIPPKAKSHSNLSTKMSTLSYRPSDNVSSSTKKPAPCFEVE
The assay is described as follows: Binding assay using human AT1 receptor-expressing CHO-K1 cell membrane fraction ([125I]-angiotensin II). The settings on record: 22.5 pM [125I]-angiotensin II, 9 μg AT1 membrane, 1 hr room temperature; read-out: AT1 receptor binding inhibitory action (IC50 (nM)). The method in brief: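 Radioligand displacement: test compound competed with [125I]-angiotensin II (22.5 pM) on stable CHO-K1 AT1 membrane fraction, 1 hr, room temperature, Tris pH 7.4/MgCl2 buffer ± 0.3 mg/mL BSA. Filtration then scintillation counting; 1 μM CV-11974 defined nonspecific binding. Values are IC50s.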

For the next assay, the target named is T2, PPARγ (Homo sapiens, UniProt P37231).
T2 construct: expressed in transfected cells; host or cells: CHO-K1
T2 sequence (P37231 1-477 isoform P37231-2): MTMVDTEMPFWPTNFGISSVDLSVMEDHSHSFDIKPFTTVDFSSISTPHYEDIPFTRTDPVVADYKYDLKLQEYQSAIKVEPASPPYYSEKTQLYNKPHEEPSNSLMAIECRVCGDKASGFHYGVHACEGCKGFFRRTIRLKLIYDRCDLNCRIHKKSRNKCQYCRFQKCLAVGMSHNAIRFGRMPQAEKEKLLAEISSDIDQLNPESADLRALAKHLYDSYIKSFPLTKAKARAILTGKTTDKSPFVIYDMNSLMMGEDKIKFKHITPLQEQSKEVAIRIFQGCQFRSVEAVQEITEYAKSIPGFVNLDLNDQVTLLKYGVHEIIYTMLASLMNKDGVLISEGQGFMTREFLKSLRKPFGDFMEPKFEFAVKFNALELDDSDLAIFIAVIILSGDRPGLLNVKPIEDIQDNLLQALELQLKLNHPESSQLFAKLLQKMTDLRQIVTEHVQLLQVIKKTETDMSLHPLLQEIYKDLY
T2 sequence (P19793 1-462 partner): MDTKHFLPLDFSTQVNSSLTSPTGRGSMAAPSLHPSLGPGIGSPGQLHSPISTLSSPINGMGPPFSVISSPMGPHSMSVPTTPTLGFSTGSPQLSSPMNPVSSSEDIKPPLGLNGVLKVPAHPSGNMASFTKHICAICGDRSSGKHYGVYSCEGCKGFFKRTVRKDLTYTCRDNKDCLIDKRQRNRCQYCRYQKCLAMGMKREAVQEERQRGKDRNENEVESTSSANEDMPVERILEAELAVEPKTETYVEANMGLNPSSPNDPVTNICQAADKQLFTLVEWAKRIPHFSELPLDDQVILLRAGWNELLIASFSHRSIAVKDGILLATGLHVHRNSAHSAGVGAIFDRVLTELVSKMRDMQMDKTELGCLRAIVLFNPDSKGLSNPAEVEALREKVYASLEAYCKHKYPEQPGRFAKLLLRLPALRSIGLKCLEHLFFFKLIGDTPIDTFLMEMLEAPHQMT
The assay is described as follows: Evaluation of PPARγ activating action (luciferase reporter in PPARγ:RXRα:4ERPP/CHO-K1 cells). The format is cell-based. The settings on record: CHO-K1, 24 h; test compound 10^−6 M; luciferase activity relative to control compound X (1 μM) = 100%, non-administration group = 0%; read-out: PPARγ activating action (activation % (10^−6 M)). Summed up:
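Activity is expressed as percent, where vehicle gives 0% and 1 μM compound X gives 100%, based on luciferase luminescence. Reporter CHO-K1 cells co-expressing PPARγ:RXRα with a 4ERPP-driven luciferase were incubated with test compound for one day at 37 °C in medium with 0.1% fatty acid-free BSA.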
Background: A reporter such as luciferase makes a cellular process visible.

As to `CCCc1nc(C)n(-c2ccc3c(c2)C(=O)CC(C)(C)O3)c(=O)c1Cc1ccc(-c2ccccc2-c2noc(=O)[nH]2)cc1` [Example 145, 3-(2,2-dimethyl-4-oxo-3,4-dihydro-2H-chromen-6-yl)-2-methyl-5-{[2′-(5-oxo-4,5-dihydro-1,2,4-oxadiazol-3-yl)biphenyl-4-yl]methyl}-6-propylpyrimidin-4(3H)-one], the 50% inhibitory concentration (IC50) at human AT1 receptor is 1.8 nM. Further, the activation at 1 µM on PPARγ was determined as 36.5%.

For `CCCCc1nc(C)n(Cc2noc(-c3ccccc3)n2)c(=O)c1Cc1ccc(-c2ccccc2-c2noc(=O)[nH]2)cc1` [Example 152, 6-butyl-2-methyl-5-{[2′-(5-oxo-4,5-dihydro-1,2,4-oxadiazol-3-yl)biphenyl-4-yl]methyl}-3-[(5-phenyl-1,2,4-oxadiazol-3-yl)methyl]pyrimidin-4(3H)-one], the IC50 on human AT1 receptor came out at 2.1 nM. The activation at 1 µM on PPARγ is 64.8%.

With `CCCCc1nc(C)n(CC2CCCCO2)c(=O)c1Cc1ccc(-c2ccccc2-c2noc(=O)[nH]2)cc1` (stereo not shown) [Example 160, 6-butyl-2-methyl-5-{[2′-(5-oxo-4,5-dihydro-1,2,4-oxadiazol-3-yl)biphenyl-4-yl]methyl}-3-(tetrahydro-2H-pyran-2-ylmethyl)pyrimidin-4(3H)-one], the IC50 on human AT1 receptor was 1.8 nM. The activation at 1 µM at PPARγ was determined as 61.6%.

In the case of `CCCCc1nc(C)n(Cc2c(F)cccc2F)c(=O)c1Cc1ccc(-c2ccccc2-c2noc(=O)[nH]2)cc1` [Example 165, 6-butyl-3-(2,6-difluorobenzyl)-2-methyl-5-{[2′-(5-oxo-4,5-dihydro-1,2,4-oxadiazol-3-yl)biphenyl-4-yl]methyl}pyrimidin-4(3H)-one], the IC50 at human AT1 receptor is 1.7 nM. On PPARγ, the activation at 1 µM worked out at 59%.

`CCCc1ncn(-c2ccc3c(c2)CC(C)(C)O3)c(=O)c1Cc1ccc(-c2ccccc2-c2noc(=O)[nH]2)cc1` [Example 178, 3-(2,2-dimethyl-2,3-dihydro-1-benzofuran-5-yl)-5-{[2′-(5-oxo-4,5-dihydro-1,2,4-oxadiazol-3-yl)biphenyl-4-yl]methyl}-6-propylpyrimidin-4(3H)-one]: the IC50 at human AT1 receptor worked out at 2.6 nM. Further, at PPARγ, the activation at 1 µM worked out at 37.5%.

With `CCCCc1nc(C)n(-c2ccc(C)c(C)c2)c(=O)c1Cc1ccc(-c2ccccc2-c2noc(=O)[nH]2)cc1` [Example 202, 6-butyl-3-(3,4-dimethylphenyl)-2-methyl-5-{[2′-(5-oxo-4,5-dihydro-1,2,4-oxadiazol-3-yl)biphenyl-4-yl]methyl}pyrimidin-4(3H)-one], at human AT1 receptor, the half-maximal inhibitory concentration (IC50) is 1.5 nM. The activation at 1 µM at PPARγ came to 25.3%.

As for `CCCCc1nc(C)n(-c2ccccc2)c(=O)c1Cc1c(F)cc(-c2ccccc2-c2noc(=O)[nH]2)cc1F` [Example 204, 6-butyl-5-{[3,5-difluoro-2′-(5-oxo-4,5-dihydro-1,2,4-oxadiazol-3-yl)biphenyl-4-yl]methyl}-2-methyl-3-phenylpyrimidin-4(3H)-one], the half-maximal inhibitory concentration (IC50) at human AT1 receptor was found to be 1.6 nM. The activation at 1 µM at PPARγ turned out to be 27.4%.

Regarding `CCCCc1nc(C)n(-c2ccoc2)c(=O)c1Cc1ccc(-c2ccccc2-c2noc(=O)[nH]2)cc1` [Example 206, 6-butyl-3-(3-furyl)-2-methyl-5-{[2′-(5-oxo-4,5-dihydro-1,2,4-oxadiazol-3-yl)biphenyl-4-yl]methyl}pyrimidin-4(3H)-one], the IC50 at human AT1 receptor worked out at 2 nM. The activation at 1 µM on PPARγ amounted to 21.8%.

As for `CCCCc1nc(C)n(-c2cccc(C(C)(C)O)c2)c(=O)c1Cc1ccc(-c2ccccc2-c2noc(=O)[nH]2)cc1` [Example 217, 6-butyl-3-[3-(1-hydroxy-1-methylethyl)phenyl]-2-methyl-5-{[2′-(5-oxo-4,5-dihydro-1,2,4-oxadiazol-3-yl)biphenyl-4-yl]methyl}pyrimidin-4(3H)-one], the IC50 at human AT1 receptor was found to be 1.1 nM. Moreover, the activation at 1 µM at PPARγ was found to be 26.8%.

For the molecule `CCCCc1nc(C)n(-c2ccc(OCC)cc2)c(=O)c1Cc1ccc(-c2ccccc2-c2noc(=O)[nH]2)cc1` [Example 222, 6-butyl-3-(4-ethoxyphenyl)-2-methyl-5-{[2′-(5-oxo-4,5-dihydro-1,2,4-oxadiazol-3-yl)biphenyl-4-yl]methyl}pyrimidin-4(3H)-one], the IC50 at human AT1 receptor was 1.3 nM. Besides, the activation at 1 µM at PPARγ was 29.3%.

`CCCCc1nc(C)n(-c2ccc3c(c2)CC(C)(C)O3)c(=O)c1Cc1ccc(-c2ccccc2-c2noc(O)n2)cc1` [Example 234, 6-butyl-3-(2,2-dimethyl-2,3-dihydro-1-benzofuran-5-yl)-2-methyl-5-{[2′-(5-oxo-4,5-dihydro-1,2,4-oxadiazol-3-yl)biphenyl-4-yl]methyl}pyrimidin-4(3H)-one]: the concentration for half-maximal inhibition (IC50) on human AT1 receptor is 1.2 nM. On PPARγ, the activation at 1 µM came out at 33.9%.

For the molecule `CCCc1nc(C)n(-c2ccc3c(c2)CC(C)O3)c(=O)c1Cc1ccc(-c2ccccc2-c2noc(=O)[nH]2)cc1` (stereo not shown) [Example 235, 2-methyl-3-(2-methyl-2,3-dihydro-1-benzofuran-5-yl)-5-{[2′-(5-oxo-4,5-dihydro-1,2,4-oxadiazol-3-yl)biphenyl-4-yl]methyl}-6-propylpyrimidin-4(3H)-one], the IC50 on human AT1 receptor is 1.5 nM. Also, the activation at 1 µM at PPARγ was 27.6%.

On to `CCCc1nc(C)n(-c2ccc3c(c2)CC(C)(C)O3)c(=O)c1Cc1ccc(-c2ccccc2-c2noc(=O)[nH]2)cc1` [Example 239, 3-(2,2-dimethyl-2,3-dihydro-1-benzofuran-5-yl)-2-methyl-5-{[2′-(5-oxo-4,5-dihydro-1,2,4-oxadiazol-3-yl)biphenyl-4-yl]methyl}-6-propylpyrimidin-4(3H)-one], for which the IC50 on human AT1 receptor came out at 1.8 nM. On PPARγ, the activation at 1 µM was 31.6%.

Turning to `CCCOc1ccc(-n2c(C)nc(CCC)c(Cc3ccc(-c4ccccc4-c4noc(=O)[nH]4)cc3)c2=O)cc1` [Example 249, 2-methyl-5-{[2′-(5-oxo-4,5-dihydro-1,2,4-oxadiazol-3-yl)biphenyl-4-yl]methyl}-3-(4-propoxyphenyl)-6-propylpyrimidin-4(3H)-one], the IC50 on human AT1 receptor is 1.6 nM. Besides, the activation at 1 µM on PPARγ was 30.5%.

As for `CCCc1nc(C)n(-c2ccc(OC3CCC3)cc2)c(=O)c1Cc1ccc(-c2ccccc2-c2noc(=O)[nH]2)cc1` [Example 255, 3-[4-(cyclobutyloxy)phenyl]-2-methyl-5-{[2′-(5-oxo-4,5-dihydro-1,2,4-oxadiazol-3-yl)biphenyl-4-yl]methyl}-6-propylpyrimidin-4(3H)-one], the half-inhibitory concentration (IC50) at human AT1 receptor amounted to 1.7 nM. Besides, the activation at 1 µM at PPARγ is 30.5%.

Take `CCCc1nc(C)n(-c2ccc(OC(CC)CC)cc2)c(=O)c1Cc1ccc(-c2ccccc2-c2noc(=O)[nH]2)cc1` [Example 256, 3-[4-(1-ethylpropoxy)phenyl]-2-methyl-5-{[2′-(5-oxo-4,5-dihydro-1,2,4-oxadiazol-3-yl)biphenyl-4-yl]methyl}-6-propylpyrimidin-4(3H)-one]: the IC50 on human AT1 receptor came out at 2 nM. In addition, the activation at 1 µM on PPARγ worked out at 45.7%.

`CCCc1nc(C)n(-c2ccc(OC3CC3)cc2)c(=O)c1Cc1ccc(-c2ccccc2-c2noc(=O)[nH]2)cc1` [Example 265, 3-[4-(cyclopropyloxy)phenyl]-2-methyl-5-{[2′-(5-oxo-4,5-dihydro-1,2,4-oxadiazol-3-yl)biphenyl-4-yl]methyl}-6-propylpyrimidin-4(3H)-one]: on human AT1 receptor, the IC50 worked out at 1.7 nM. For the same molecule, the activation at 1 µM on PPARγ worked out at 27.8%.
